{"source": "paper PMC3480965", "about": "(Molecular pharmaceutics, 2012)", "origin": "cited, not measured here", "key": {"[1]": {"target": "melanocortin-1 (MC1) receptor (Mus musculus, UniProt Q01727)", "sequence (Q01727 whole entry)": "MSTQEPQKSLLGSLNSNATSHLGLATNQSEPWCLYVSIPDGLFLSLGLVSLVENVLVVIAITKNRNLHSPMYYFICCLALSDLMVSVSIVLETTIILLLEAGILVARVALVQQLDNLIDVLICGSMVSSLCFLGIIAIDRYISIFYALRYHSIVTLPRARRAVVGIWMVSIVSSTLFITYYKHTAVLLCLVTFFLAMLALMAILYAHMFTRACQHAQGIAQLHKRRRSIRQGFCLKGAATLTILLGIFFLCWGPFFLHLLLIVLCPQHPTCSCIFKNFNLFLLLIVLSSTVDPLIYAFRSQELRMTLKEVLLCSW", "settings": "read-out: MC1 receptor binding affinity (IC50); B16/F1 melanoma cells"}, "[2]": {"test_system": "melanoma", "settings": "in vivo, 2 h"}}}
{"substance": "1,4,7,10-tetraazacyclononane-1,4,7,10-tetraacetic acid-GGNle-CycMSHhex (GGXDHFRWK; X3 = norleucine (Nle); D-Phe6; lactam bridge between Asp4 and Lys9 side chains (cyclic); C-terminal amide; 64Cu-labelled for biod) [DOTA-GGNle-CycMSHhex]", "values": [{"measurement": "IC50", "setting": "[1]", "value": 2.1, "unit": "nM"}]}
{"substance": "Ac-Nle-Asp-His-D-Phe-Arg-Trp-Gly-Lys(^64Cu-DOTA)-NH2 [^64Cu-DOTA-NAPamide]", "values": [{"measurement": "Liver uptake", "setting": "[2]", "value": 11.0, "unit": "% ID/g"}, {"measurement": "Melanoma uptake", "setting": "[2]", "value": "4.63 ± 0.45", "unit": "% ID/g"}]}
{"substance": "^64Cu-DOTA-Re-[Cys[3],[4],[10], D-Phe^7, Arg^11]a-MSH3–13 [^64Cu-DOTA-ReCCMSH(Arg^11)]", "values": [{"measurement": "Liver uptake", "setting": "[2]", "value": 7.3, "unit": "% ID/g"}, {"measurement": "Melanoma uptake", "setting": "[2]", "value": "8.80 ± 1.70", "unit": "% ID/g"}]}
